From article PMC6891762, “Novel Isoxazolidine and γ-Lactam Analogues of Homonucleosides” (Molecules, 2019)
Converted amounts (≈) assume the structure as drawn.

Tests used:
[1] = system: HCT-116 (colorectal carcinoma) cells; assay: Cytostatic activity, HCT-116; assay type: cell-based; conditions: Homo sapiens, HCT-116; concentration causing 50% decrease in cell proliferation
Experimental: (§1) The 50% cytostatic inhibitory concentration (IC50) causing a 50% decrease in cell proliferation was determined for all isolated isoxazolidines 14 and γ-lactams 15 toward nine cancerous cell lines (Capan-1 (pancreatic adenocarcinoma), Hap1 (chronic myeloid leukemia), HCT-116 (colorectal carcinoma), NCI-H460 (lung carcinoma), DND-41 (acute lymphoblastic leukemia), HL-60 (acute myeloid leukemia), K-562 (chronic myeloid leukemia), MM.1S (multiple myeloma) and Z-138 (non-Hodgkin lymphoma)) and normal retina (non-cancerous) cells (hTERT RPE-1). Docetaxel, etoposide and stauroporine were used as the reference compounds.
(§2) All assays were performed in 96-well microtiter plates. To each well was added (5−7.5) × 10^4 tumor cells and a given amount of the test compound. The cells were allowed to proliferate at 37 °C in a humidified, CO2-controlled atmosphere. At the end of the incubation period, the cells were counted in a Coulter counter. The IC50 (50% inhibitory concentration) was defined as the concentration of the compound that inhibited cell proliferation by 50%.

[2] = system: Hap1 (chronic myeloid leukemia) cells; assay: Cytostatic activity, Hap1; assay type: cell-based; conditions: Homo sapiens, HAP1; concentration causing 50% decrease in cell proliferation
Experimental: as §1, §2

[3] = system: hTERT RPE-1 normal retina (non-cancerous) cells; assay: Cytostatic activity, normal retina cells; assay type: cell-based; conditions: hTERT-RPE1; concentration causing 50% decrease in cell proliferation
Experimental: as §1, §2

[4] = system: NCI-H460 (lung carcinoma) cells; assay: Cytostatic activity, NCI-H460; assay type: cell-based; conditions: Homo sapiens, NCI-H460; concentration causing 50% decrease in cell proliferation
Experimental: as §1, §2

[5] = system: Capan-1 (pancreatic adenocarcinoma) cells; assay: Cytostatic activity, Capan-1; assay type: cell-based
Experimental: as §1, with “RPE-1).” for “RPE-1). Docetaxel, etoposide and stauroporine were used as the reference compounds.”
as §2, with “counter.” for “counter. The IC50 (50% inhibitory concentration) was defined as the concentration of the compound that inhibited cell proliferation by 50%.”

[6] = parameters: method as in PMID 12904074, PMID 20394405, PMID 15743182, PMID 17580846, PMID 17967914; conditions: ref [34],[35],[36],[37],[38]; read-out: 50% cytotoxic concentration (CC50); cited from earlier work
[7] = system: reverse transcriptase activity of (AMV) and human immunodeficiency virus (HIV); conditions: ref [34],[35],[36],[37],[38]; cited from earlier work
vaccinia virus = conditions: ref [19],[20],[21]; cited from earlier work
herpes simplex virus = conditions: ref [19],[20],[21]; cited from earlier work
[8] = system: influenza type virus AH1N1; parameters: method as in PMID 23225323; conditions: ref [22]; cited from earlier work
[9] = system: viral uracil-DNA glycosylase (UDG); parameters: method as in PMID 11084051; conditions: ref [23]; cited from earlier work
human enzymes (UDG) = system: human enzymes (UDG); parameters: method as in PMID 11084051; conditions: ref [23]; cited from earlier work
[10] = Homo sapiens, CAPAN-1, concentration causing 50% decrease in cell proliferation

SMILES: Cc1cn(C[C@H]2C[C@H](O)C(=O)N2C)c(=O)[nH]c1=O (relative stereo) [trans-15b, trans-1-[(4-Hydroxy-1-methyl-5-oxopyrrolidin-2-yl)methyl]-5-methylpyrimidine-2,4(1H,3H)-dione]
- IC50 [1]: 53.3 µM
- IC50 [2]: 86.5 µM
- IC50 [3]: > 100 µM
- IC50 [4]: 55.6 µM
- IC50 [5, 10]: 49.2 µM

SMILES: CN1C(=O)[C@@H](O)C[C@@H]1Cn1cc(Br)c(=O)[nH]c1=O (relative stereo) [trans-15d, trans-5-Bromo-1-[(4-hydroxy-1-methyl-5-oxopyrrolidin-2-yl)methyl]pyrimidine-2,4(1H,3H)-dione]
- IC50 [1]: > 100 µM
- IC50 [2]: 58.5 µM
- IC50 [3]: > 100 µM
- IC50 [4]: 42.1 µM
- IC50 [5, 10]: 24.8 µM

SMILES: CN1C(=O)[C@@H](O)C[C@@H]1Cn1cc(Cl)c(=O)[nH]c1=O (relative stereo) [trans-15e, trans-5-Chloro-1-[(4-hydroxy-1-methyl-5-oxopyrrolidin-2-yl)methyl]pyrimidine-2,4(1H,3H)-dione]
- IC50 [1]: > 100 µM
- IC50 [2]: 54.5 µM
- IC50 [3]: > 100 µM
- IC50 [4]: 47.7 µM
- IC50 [5, 10]: 21.5 µM
- IC50 ([5]; concentration causing 50% decrease in cell proliferation): 18.2 µM

SMILES: CN1C(=O)[C@@H](O)C[C@@H]1Cn1cnc2c(=O)n(C)c(=O)n(C)c21 (relative stereo) [trans-15h, trans-9-[(4-Hydroxy-1-methyl-5-oxopyrrolidin-2-yl)methyl]-1,3-dimethyl-3,9-dihydro-1H-purine-2,6-dione]
- IC50 [1]: 45.7 µM
- IC50 [2]: > 100 µM
- IC50 [3]: > 100 µM
- IC50 [4]: 49.8 µM
- IC50 [5, 10]: 47.2 µM

SMILES: CN1C(=O)[C@@H](O)C[C@@H]1Cn1cnc2c(N)ncnc21 (relative stereo) [trans-15i, trans-5-[(6-Amino-9H-purin-9-yl)methyl]-3-hydroxy-1-methylpyrrolidin-2-one]
- IC50 [1]: 65.7 µM
- IC50 [2]: 47.8 µM
- IC50 [3]: > 100 µM
- IC50 [4]: 54.7 µM
- IC50 [5, 10]: 53.7 µM

SMILES: Cc1cn([C@H]2C[C@H](N=[N+]=[N-])[C@@H](CO)O2)c(=O)[nH]c1=O [AZT, azidothymidine]
- CC50 [6]: 12.1 µM
- level of inhibition of reverse transcriptase activity [7]: 10 nM

SMILES: Nc1ncnc2c1ncn2C[C@H]1C[C@H](O)[C@@H](CO)O1 [Compound 1]
- activity against vaccinia virus (vaccinia virus): active
- minimum inhibitory concentration (MIC) (herpes simplex virus): 5 to 20 µg/mL

SMILES: Nc1nc2c(ncn2C[C@H]2C[C@H](O)[C@@H](CO)O2)c(=O)[nH]1 [Compound 2]
- activity against vaccinia virus (vaccinia virus): active
- minimum inhibitory concentration (MIC) (herpes simplex virus): 5 to 20 µg/mL

SMILES: O=c1[nH]cnc2c1ncn2C[C@H]1C[C@H](O)[C@@H](CO)O1 [Compound 3]
- IC50 [8]: 25.2 µg/mL (≈ 94.6 µM)

SMILES: O=c1ccn(C[C@H]2C[C@H](O)[C@@H](CO)O2)c(=O)[nH]1 [Compound 4]
- inhibition of viral uracil-DNA glycosylase (UDG) [9]: selective inhibitor
- effect on the human enzymes (human enzymes (UDG)): only small effect

SMILES: CC(=O)O[C@@]12CO[C@@H]1C[C@H](O)[C@@]1(C)C(=O)[C@H](O)C3=C(C)[C@@H](OC(=O)[C@H](O)[C@@H](NC(=O)OC(C)(C)C)c4ccccc4)C[C@@](O)([C@@H](OC(=O)c4ccccc4)[C@H]21)C3(C)C [Docetaxel, reference compound]
- IC50 [1]: 0.25 µM
- IC50 [2]: 1.19 µM
- IC50 [3]: 25 µM
- IC50 [4]: 0.89 µM
- IC50 [5, 10]: 0.95 µM

SMILES: COc1cc([C@@H]2c3cc4c(cc3[C@@H](O[C@@H]3O[C@@H]5CO[C@@H](C)O[C@H]5[C@H](O)[C@H]3O)[C@H]3COC(=O)[C@H]23)OCO4)cc(OC)c1O [Etoposide, reference compound]
- IC50 [1]: 1.03 µM
- IC50 [2]: 0.04 µM
- IC50 [3]: 0.23 µM
- IC50 [4]: 1.35 µM
- IC50 [5, 10]: 0.15 µM

SMILES: CN1C(=O)C(O)C[C@H]1Cn1cc(Br)c(=O)[nH]c1=O (stereo partly drawn) [cis-15d:trans-15d (53:47)]
- IC50 [1]: 90 µM
- IC50 [2]: 49.9 µM
- IC50 [3]: > 100 µM
- IC50 [4]: 49.4 µM
- IC50 [5, 10]: 52.1 µM

SMILES: CN1C(=O)[C@@H](O)C[C@H]1CN1CCC(=O)NC1=O [cis-15g, cis-1-[(4-Hydroxy-1-methyl-5-oxopyrrolidin-2-yl)metyl]dihydropyrimidine-2,4(1H,3H)-dione]
- IC50 [1]: > 100 µM
- IC50 [2]: 56.3 µM
- IC50 [3]: > 100 µM
- IC50 [4]: 42.7 µM
- IC50 [5, 10]: 41.3 µM

SMILES: C[C@H](Cn1cnc2c(N)ncnc21)OCP(=O)(O)O [tenofovir]
- level of inhibition of reverse transcriptase activity [7]: 1 nM

SMILES: CN1C(=O)[C@H](O)C[C@H]1CN1CCC(=O)NC1=O [trans-15g, trans-1-[(4-Hydroxy-1-methyl-5-oxopyrrolidin-2-yl)metyl]dihydropyrimidine-2,4(1H,3H)-dione]
- IC50 [1]: > 100 µM
- IC50 [2]: 49.4 µM
- IC50 [3]: > 100 µM
- IC50 [4]: 69.3 µM
- IC50 [5, 10]: 46.7 µM
